Where two headings read alike, the source gives them in different places.
What was measured:
Assay in all cases: Glasshouse assay for herbicidal activity (pre- and post-emergence), percentage phytotoxicity
Format in all cases: in vivo
[1] = tested on: Echinochloa crus-galli (ECHCG); details: Echinochloa crus-galli
Method in brief: (§1)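 Visual phytotoxicity score, 0% = undamaged to 100% = total kill, read 20 days after treatment for PRE and 15 days for POST. Pots of standard soil; treatment at day 1 (PRE) or roughly day 12 (POST). Glasshouse: 16 h photoperiod, 65% RH, 24/18 or 20/16 °C by climate type.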

[2] = tested on: Alopecurus myosuroides (ALOMY); details: Alopecurus myosuroides
Method in brief: as §1

[3] = tested on: Avena fatua (AVEFA); details: Avena fatua
Method in brief: as §1

[4] = tested on: Lolium perenne (LOLPE); details: Lolium perenne
Method in brief: as §1

[5] = post-emergence, 360 h, POST-emergence, rate 250 g/ha, visual score 15 DAA (100%=total damage, 0%=no damage), read-out: Post-emergence herbicidal activity (percentage phytotoxicity) ECHCG POST
[6] = pre-emergence, 480 h, PRE-emergence, rate 250 g/ha, visual score 20 DAA (100%=total damage, 0%=no damage), read-out: Pre-emergence herbicidal activity (percentage phytotoxicity) ECHCG PRE
[7] = post-emergence, 360 h, POST-emergence, rate 250 g/ha, visual score 15 DAA (100%=total damage, 0%=no damage), read-out: Post-emergence herbicidal activity (percentage phytotoxicity) ALOMY POST
[8] = pre-emergence, 480 h, PRE-emergence, rate 250 g/ha, visual score 20 DAA (100%=total damage, 0%=no damage), read-out: Pre-emergence herbicidal activity (percentage phytotoxicity) ALOMY PRE
[9] = post-emergence, 360 h, POST-emergence, rate 250 g/ha, visual score 15 DAA (100%=total damage, 0%=no damage), read-out: Post-emergence herbicidal activity (percentage phytotoxicity) AVEFA POST
[10] = pre-emergence, 480 h, PRE-emergence, rate 250 g/ha, visual score 20 DAA (100%=total damage, 0%=no damage), read-out: Pre-emergence herbicidal activity (percentage phytotoxicity) AVEFA PRE
[11] = post-emergence, 360 h, POST-emergence, rate 250 g/ha, visual score 15 DAA (100%=total damage, 0%=no damage), read-out: Post-emergence herbicidal activity (percentage phytotoxicity) LOLPE POST
[12] = pre-emergence, 480 h, PRE-emergence, rate 250 g/ha, visual score 20 DAA (100%=total damage, 0%=no damage), read-out: Pre-emergence herbicidal activity (percentage phytotoxicity) LOLPE PRE
[13] = post-emergence, 360 h, 250 g/ha, post-emergence, 15 DAA, visual assessment (100%=total damage, 0%=no damage), read-out: Post-emergence herbicidal activity (percentage phytotoxicity) ECHCG POST
[14] = pre-emergence, 480 h, 250 g/ha, pre-emergence, 20 DAA, visual assessment (100%=total damage, 0%=no damage), read-out: Pre-emergence herbicidal activity (percentage phytotoxicity) ECHCG PRE
[15] = post-emergence, 360 h, 250 g/ha, post-emergence, 15 DAA, visual assessment (100%=total damage, 0%=no damage), read-out: Post-emergence herbicidal activity (percentage phytotoxicity) ALOMY POST
[16] = pre-emergence, 480 h, 250 g/ha, pre-emergence, 20 DAA, visual assessment (100%=total damage, 0%=no damage), read-out: Pre-emergence herbicidal activity (percentage phytotoxicity) ALOMY PRE
[17] = post-emergence, 360 h, 250 g/ha, post-emergence, 15 DAA, visual assessment (100%=total damage, 0%=no damage), read-out: Post-emergence herbicidal activity (percentage phytotoxicity) AVEFA POST
[18] = pre-emergence, 480 h, 250 g/ha, pre-emergence, 20 DAA, visual assessment (100%=total damage, 0%=no damage), read-out: Pre-emergence herbicidal activity (percentage phytotoxicity) AVEFA PRE
[19] = post-emergence, 360 h, 250 g/ha, post-emergence, 15 DAA, visual assessment (100%=total damage, 0%=no damage), read-out: Post-emergence herbicidal activity (percentage phytotoxicity) LOLPE POST
[20] = pre-emergence, 480 h, 250 g/ha, pre-emergence, 20 DAA, visual assessment (100%=total damage, 0%=no damage), read-out: Pre-emergence herbicidal activity (percentage phytotoxicity) LOLPE PRE

Structure (SMILES) | pest or weed control at 250 g/ha [1, 5] | pest or weed control at 250 g/ha [1, 6] | pest or weed control at 250 g/ha [2, 7] | pest or weed control at 250 g/ha [2, 8] | pest or weed control at 250 g/ha [3, 9] | pest or weed control at 250 g/ha [3, 10] | pest or weed control at 250 g/ha [4, 11] | pest or weed control at 250 g/ha [4, 12] | pest or weed control at 250 g/ha [1, 13] | pest or weed control at 250 g/ha [1, 14] | pest or weed control at 250 g/ha [2, 15] | pest or weed control at 250 g/ha [2, 16] | pest or weed control at 250 g/ha [3, 17] | pest or weed control at 250 g/ha [3, 18] | pest or weed control at 250 g/ha [4, 19] | pest or weed control at 250 g/ha [4, 20] | further results
C=CC(C)NC(=O)CC1CC(=O)C(c2c(C)cc(-c3ncc(Cl)cn3)cc2C)C1=O (stereo not drawn) [Compound B345] |  |  |  |  |  |  |  |  |  |  |  |  |  |  |  |  | pest or weed control at 250 g/ha ([1]; post-emergence, 360 h, Rate 250 g/ha, post-emergence, visual assessment 15 DAA, 100%=total damage, 0%=no damage, read-out: Post-emergence herbicidal activity (percentage phytotoxicity) ECHCG POST): 100%; pest or weed control at 250 g/ha ([1]; pre-emergence, 480 h, Rate 250 g/ha, pre-emergence, visual assessment 20 DAA, 100%=total damage, 0%=no damage, read-out: Pre-emergence herbicidal activity (percentage phytotoxicity) ECHCG PRE): 100%; pest or weed control at 250 g/ha ([2]; post-emergence, 360 h, Rate 250 g/ha, post-emergence, visual assessment 15 DAA, 100%=total damage, 0%=no damage, read-out: Post-emergence herbicidal activity (percentage phytotoxicity) ALOMY POST): 100%; pest or weed control at 250 g/ha ([2]; pre-emergence, 480 h, Rate 250 g/ha, pre-emergence, visual assessment 20 DAA, 100%=total damage, 0%=no damage, read-out: Pre-emergence herbicidal activity (percentage phytotoxicity) ALOMY PRE): 100%; pest or weed control at 250 g/ha ([3]; post-emergence, 360 h, Rate 250 g/ha, post-emergence, visual assessment 15 DAA, 100%=total damage, 0%=no damage, read-out: Post-emergence herbicidal activity (percentage phytotoxicity) AVEFA POST): 100%; pest or weed control at 250 g/ha ([3]; pre-emergence, 480 h, Rate 250 g/ha, pre-emergence, visual assessment 20 DAA, 100%=total damage, 0%=no damage, read-out: Pre-emergence herbicidal activity (percentage phytotoxicity) AVEFA PRE): 90%; pest or weed control at 250 g/ha ([4]; post-emergence, 360 h, Rate 250 g/ha, post-emergence, visual assessment 15 DAA, 100%=total damage, 0%=no damage, read-out: Post-emergence herbicidal activity (percentage phytotoxicity) LOLPE POST): 100%; pest or weed control at 250 g/ha ([4]; pre-emergence, 480 h, Rate 250 g/ha, pre-emergence, visual assessment 20 DAA, 100%=total damage, 0%=no damage, read-out: Pre-emergence herbicidal activity (percentage phytotoxicity) LOLPE PRE): 100%
Cc1cc(-n2cc(Cl)cn2)cc(C)c1C1C(=O)CC(CC(=O)NCc2ccc(C#N)cc2)C1=O (stereo not drawn) [Compound B225] | 70% | 0% | 60% | 0% | 70% | 0% | 60% | 0% |  |  |  |  |  |  |  |  | 
Cc1cc(-c2ncc(Cl)cc2F)cc(C)c1C1C(=O)CC(CC(=O)NCC(C)C)C1=O (stereo not drawn) [Compound B124] |  |  |  |  |  |  |  |  | 100% | 100% | 100% | 90% | 100% | 100% | 100% | 100% | 
C=C(C)CNC(=O)CC1CC(=O)C(c2c(C)cc(-c3ccc(Br)cn3)cc2C)C1=O (stereo not drawn) [Compound B298] | 100% | 100% | 100% | 90% | 100% | 90% | 90% | 90% |  |  |  |  |  |  |  |  | 
CC#Cc1cc(C)c(C2C(=O)CC(CC(=O)NCc3ccc(OC)cc3)C2=O)c(C)c1 (stereo not drawn) [Compound B184] | 100% | 100% | 90% | 90% | 90% | 90% | 90% | 100% |  |  |  |  |  |  |  |  | 
Cc1cc(C)c(C2C(=O)CC(CC(=O)NCc3cccc(F)c3)C2=O)c(C)c1 (stereo not drawn) [Compound B21] |  |  |  |  |  |  |  |  | 90% | 100% | 80% | 80% | 90% | 50% | 90% | 100% | 

Reference: patent publication US10206394B2, “Herbicidal compounds” (Syngenta Participations AG, priority 2014, dated 2019)
